Source: patent US6544989B2, “Benzazoles: benzoxazole, benzthiazole and benzimidazole derivatives” (Syngenta Limited, priority 1998, dated 2003)
Several values for one entry are separate records, joined by “and”; a condition that tells them apart may be missing. Identical values can stand only once. Like-named read-outs stand apart in the source and are kept apart here. Marks after values point to notes of the source that are not given here.

Columns and labels:
Plasmopara viticola [1] = assay: Fungicidal test, Plasmopara viticola (PLASVI) on vines, PRCO; assay type: in vivo
[2] = test system: Phytophthora infestans lycopersici; assay type: in vivo
Botrytis cinerea = assay: Fungicidal test, Botrytis cinerea (BOTRCI) on tomatoes, PRCO; assay type: in vivo; details: METHOD 2 (unbanded)
Venturia inaequalis = assay: Fungicidal test, Venturia inaequalis (VENTIN) on apples, PRCO; assay type: in vivo; details: METHOD 2 (unbanded)
[3] = test system: Erysiphe graminis f.sp. tritici; assay: Fungicidal test, Erysiphe graminis f.sp. tritici (ERYSGT) on wheat, PRCO; assay type: in vivo; details: for ERYSGT 6 hr Prot/Foir PRCO: METHOD 1 (values marked *); for ERYSGT 1 d Prot/Foir PRCO: METHOD 2 (unbanded)
Septoria nodorum [4] = assay: Fungicidal test, Septoria nodorum (LEPTNO) on wheat, PRCO; assay type: in vivo; details: METHOD 2 (unbanded)
Puccinia recondita = assay: Fungicidal test, Puccinia recondita (PUCCRT) on wheat, PRCO; assay type: in vivo
Pyricularia oryzae = assay type: in vivo; details: METHOD 2 (unbanded)
Musca domestica = details: 500 ppm by weight; knockdown assessed 15 minutes after treatment
Experimental: The activities of individual compounds of formula (I) were determined using a variety of pests. With the exception of nematodes, the pests were treated with a liquid composition containing 500 parts per million (ppm) by weight of a compound unless otherwise stated. Each composition was made by dissolving the compound in an acetone and ethanol (50:50 by volume) mixture and diluting the solution with water containing 0.05% by volume of a wetting agent, SYNPERONIC NP8, until the liquid composition contained the required concentration of the compound.
The test procedure adopted with regard to each pest, except nematodes, was essentially the same and composed supporting a number of the pests on a medium which was usually a substrate, a host plant or a foodstuff on which the pests feed, and treating either or both the medium and the pests with a composition. Pest mortality was assessed usually between three and five days after treatment Knockdown of housefly (Musca domestica) was assessed 15 minutes after treatment

Meloidogyne incognita = assay: Nematode test, J2 infective juveniles of Meloidogyne incognita, mortality; details: 12.5 ppm; J2 infective juveniles suspended in solution; mortality after three days
Plasmopara viticola [5] = assay: Synergy test of two-compound mixtures, Plasmopara viticola (PLASVI) on vines, observed and expected PRCO; assay type: in vivo; details: Disease on untreated: 95%
Uncinula necator = assay: Fungicidal test, Uncinula necator (UNCINE) on vines, PRCO; assay type: in vivo; details: METHOD 2 (unbanded)
Rhizoctonia solani [6] = assay: Fungicidal test, Rhizoctonia solani (RHIZSO) on rice, PRCO; assay type: in vivo; details: METHOD 2 (unbanded)
Septoria nodorum [7] = assay: Synergy test of two-compound mixtures, Septoria nodorum (LEPTNO) on wheat, observed and expected PRCO; assay type: in vivo
Rhizoctonia solani [8] = assay: Synergy test of two-compound mixtures, Rhizoctonia solani (RHIZSO) on turf, observed and expected PRCO; assay type: in vivo; details: assessed 5 days after treatment

Row | Structure (SMILES) | PHYTIN 1 d Prot/Foir PRCO ([2]; METHOD 1 (values marked *)) | BOTRCI 1 d Prot/Foir PRCO (Botrytis cinerea) | VENTIN 1 d Prot/Foir PRCO (Venturia inaequalis) | ERYSGT 6 hr Prot/Foir PRCO [3] | LEPTNO 1 d Prot/Foir PRCO (Septoria nodorum [4]) | PYRIOR 1 d Prot/Foir PRCO (Pyricularia oryzae) | MUSCDO AC = Musca domestica (knockdown), score (Musca domestica) | MELGIN = Meloidogyne incognita, grading of mortality (score) (Meloidogyne incognita) | UNCINE 1 d Prot/Foir PRCO (Uncinula necator) | PHYTIN 1 d Prot/Foir PRCO ([2]; METHOD 2 (unbanded)) | PUCCRT 1 d Prot/Foir PRCO (Puccinia recondita; METHOD 2 (unbanded)) | RHIZSO 1 d Prot/Foir PRCO (Rhizoctonia solani [6]) | PLASVI 1 d Prot/Foir PRCO (Plasmopara viticola [1]; METHOD 2 (unbanded)) | ERYSGT 1 d Prot/Foir PRCO [3] | other results
1 | Cc1nc2cc(CC(=O)Nc3snc(C)c3Cl)ccc2o1 [2(A3)] | 100* | 0 | 97 | 100* | 21 | 47 and 92 | 0 (0 indicates less than 40% mortality) | 5 (5 indicates 40-79% mortality) |  |  |  |  |  |  | PLASVI 1 d Prot/Foir PRCO (Plasmopara viticola [1]; METHOD 1 (values marked *)): 0*; PUCCRT 1 d Prot/Foir PRCO (Puccinia recondita; METHOD 1 (values marked *)): 100*
2 | CSC1=N[C@@](C)(c2ccccc2)C(=O)N1Nc1ccccc1 [fenamidone] |  |  |  |  |  |  |  |  |  |  |  |  |  |  | % disease control Observed (Plasmopara viticola [5]; fenamidone 0.2 mg/l alone): 65%
3 | Cc1nsc(NC(=O)Cc2ccc3oc(C(C)(C)C)nc3c2)c1Cl [9(A3)] |  | 3 | 33 | 100* | 55 | 100 | 9 (9 indicates 80-100% mortality) | 0 (0 indicates less than 40% mortality) | 100 | 100 | 100 | 29 |  |  | PLASVI 1 d Prot/Foir PRCO (Plasmopara viticola [1]; METHOD 1 (values marked *)): 100*
4 | Cc1nsc(NC(=O)Cc2ccc3oc(CC(C)(C)C)nc3c2)c1Cl [Compound 15(A3)] | 100* | 73 | 100 | 100* | 71 | 100 | 9 (9 indicates 80-100% mortality) | 0 (0 indicates less than 40% mortality) | 100 |  | 100 | 5 | 100 |  | % disease control Observed (Plasmopara viticola [5]; Compound 15(A3) 0.2 mg/l alone): 45%; % disease control Observed (Septoria nodorum [7]; Test 1 (Disease on untreated: 52%), Compound 15(A3) 50 mg/l alone): 16%; % disease control Observed (Septoria nodorum [7]; Test 1 (Disease on untreated: 52%), Compound 15(A3) 100 mg/l alone): 27%; % disease control Observed (Septoria nodorum [7]; Test 2 (Disease on untreated: 64%), Compound 15(A3) 50 mg/l alone): 21%; % disease control Observed (Septoria nodorum [7]; Test 2 (Disease on untreated: 64%), Compound 15(A3) 100 mg/l alone): 21%; % disease control Observed (Rhizoctonia solani [8]; Test 1, Disease on untreated 100%, Compound 15(A3) 300 mg/l alone): 2.5%; % disease control Observed (Rhizoctonia solani [8]; Test 2, Disease on untreated 100%, Compound 15(A3) 300 mg/l alone): 6.1%
5 | O=[N+]([O-])c1cc(C(F)(F)F)c(Cl)c([N+](=O)[O-])c1Nc1ncc(C(F)(F)F)cc1Cl [fluazinam] |  |  |  |  |  |  |  |  |  |  |  |  |  |  | % disease control Observed (Plasmopara viticola [5]; fluazinam 1 mg/l alone): 4%; % disease control Observed (Rhizoctonia solani [8]; Test 1, fluazinam 3 mg/l alone): 15%; % disease control Observed (Rhizoctonia solani [8]; Test 1, fluazinam 10 mg/l alone): 48.75%; % disease control Observed (Rhizoctonia solani [8]; Test 2, fluazinam 10 mg/l alone): 18.4%
6 | CCC(CC)c1nc2cc(CC(=O)Nc3snc(C)c3Cl)ccc2o1 [13(A3)] |  |  | 53 |  | 58 | 96 | 9 (9 indicates 80-100% mortality) | 0 (0 indicates less than 40% mortality) | 100 | 93 | 100 | 19 | 100 | 100 | 
7 | CCCc1nc2cc(CC(=O)Nc3snc(C)c3Cl)ccc2o1 [4(A3)] | 100* | 49 |  | 100* | 50 | 90 and 81 | 9 (9 indicates 80-100% mortality) | 9 (9 indicates 80-100% mortality) |  |  |  |  | 34 |  | PUCCRT 1 d Prot/Foir PRCO (Puccinia recondita; METHOD 1 (values marked *)): 100*
8 | CO/C=C(/C(=O)OC)c1ccccc1Oc1cc(Oc2ccccc2C#N)ncn1 [azoxystrobin, reference compound] |  |  |  |  |  |  |  |  |  |  |  |  |  |  | % disease control Observed (Plasmopara viticola [5]; azoxystrobin 0.2 mg/l alone): 61%; % disease control Observed (Septoria nodorum [7]; Test 1 (Disease on untreated: 52%), azoxystrobin 0.1 mg/l alone): 41%; % disease control Observed (Septoria nodorum [7]; Test 1 (Disease on untreated: 52%), azoxystrobin 0.25 mg/l alone): 37%; % disease control Observed (Septoria nodorum [7]; Test 2 (Disease on untreated: 64%), azoxystrobin 0.1 mg/l alone): 48%; % disease control Observed (Septoria nodorum [7]; Test 2 (Disease on untreated: 64%), azoxystrobin 0.25 mg/l alone): 71%; % disease control Observed (Rhizoctonia solani [8]; Test 1, azoxystrobin 0.1 mg/l alone): 38.25%; % disease control Observed (Rhizoctonia solani [8]; Test 1, azoxystrobin 0.3 mg/l alone): 71.25%; % disease control Observed (Rhizoctonia solani [8]; Test 2, azoxystrobin 0.1 mg/l alone): 19.7%
9 | Cc1nsc(NC(=O)Cc2ccc3oc(-c4cc(Cl)cc(Cl)c4)nc3c2)c1Cl [261(A3)] |  |  | 0 |  | −7 | 31 | 0 (0 indicates less than 40% mortality) | 0 (0 indicates less than 40% mortality) | 17 | 0 | 3 | 0 | 25 | 19 | 
10 | Cc1nsc(NC(=O)Cc2ccc3oc(SC(C)C)nc3c2)c1Cl [223(A3)] |  |  | 60 |  | 12 | 63 | 0 (0 indicates less than 40% mortality) | 0 (0 indicates less than 40% mortality) | 30 | 93 | 99 | 0 | 55 | 73 | 
